# Laboratory results reported in patent US11332503B2, “Peptides for treatment and prevention of hyperglycaemia” (UNIVERSITE DE STRASBOURG, priority 2017, dated 2022).
# Positions of bridges follow the written chain, without caps; N, C: chain ends. Non-standard residues stand in square brackets, D forms with d. R8 = C=CCCCCCC[C@@](C)(N)C(=O)O; S5 = C=CCCC[C@](C)(N)C(=O)O
# System: human primary adipocytes
# Assay: In vitro 2-deoxy-D-glucose-6-phosphate (DG6P) uptake in human primary adipocytes
# Type: cell-based
# Method: Human white visceral preadipocytes (Catalog #: C-12732; PromoCell) were purchased. The preadipocytes were seeded according to manufacturer's protocol and cultured in the Preadipocyte growth medium (Catalog #: C-27410; PromoCell) to confluence. Once confluence was reached, adipogenic differentiation was triggered through medium change to get mature human adipocytes. For the culture without insulin, Adipocyte Basal Medium (Catalog #: C-2431; PromoCell) without insulin was complemented with 5 g/L of […], 8 μg/mL d-Biotin, 400 ng/mL Dexamethasone (following manufacturer's procedure). Native peptides and their stapled counterparts as well as the scrambled peptides (corresponding to the same set of amino acids but rearranged randomly) were purchased from Eurogentec. Each peptide was diluted in saline and used at a dose of 2.5 ng per 10 cm square of cell culture surface area for in vitro studies or 2.5 ng of each peptide (A and B) was injected per mouse.
# Mature adipocytes were cultured in 96 well plate. The adipocytes received the different peptides at the indicated concentration above. 24 hours later, the glucose absorption capacity if the treated cells were assessed using the Glucose Uptake Colorimetric Assay kit from Bio Vision (Catalog #: K676-100).
# In vivo assessment of the effect of stapled peptides A and B injection in the adipose tissue of diet-induced diabetic WT mice. Mice were fed with a defined high fat/high glucose diet until they became intolerant to glucose (FIG. 5A, Prior Injection). Once the mice were glucose intolerant, these mice received an injection with a combination of the stapled peptides A and B directly in the subcutaneous fat and GTT was again performed a week later as depicted in FIG. 5B. […] FIG. 5C depicts pictures of the adipose tissue which received a combination of the stapled peptides A and B labelled with FAM (green dots indicated with the white arrows). […] A variety of modified stapled peptides were designed to test the effect of modifying the peptide sequence on insulin-independent glucose uptake into adipocytes. Peptides were obtained from CPC Scientific. Additional in vitro 2-deoxy-D-glucose-6-phosphate (DG6P) uptake results in human primary adipocytes for individual peptides of the present technology are provided in Tables 1-3.
# [1] = Table 2 dose response, 0.001 μM
substance,measurement,setting,value
H-VECTM-R8-EKRVLA-S5-LDKPPF-OH (H-VECTM[R8]EKRVLA[S5]LDKPPF-OH; staple 6-13; SMILES CSCC[C@H](NC(=O)[C@@H](NC(=O)[C@H](CS)NC(=O)[C@H](CCC(=O)O)NC(=O)[C@@H](N)C(C)C)[C@@H](C)O)C(=O)N[C@]1(C)CCCCCCC=CCCC[C@@](C)(C(=O)N[C@@H](CC(C)C)C(=O)N[C@@H](CC(=O)O)C(=O)N[C@@H](CCCCN)C(=O)N2CCC[C@H]2C(=O)N2CCC[C@H]2C(=O)N[C@@H](Cc2ccccc2)C(=O)O)NC(=O)[C@H](C)NC(=O)[C@H](CC(C)C)NC(=O)[C@H](C(C)C)NC(=O)[C@H](CCCNC(=N)N)NC(=O)[C@H](CCCCN)NC(=O)[C@H](CCC(=O)O)NC1=O) [AT014],2-DG6P,"Table 1, peptides at 50 μM",58.8 pmol
same,2-DG6P compared to -Insulin (%),"Table 1, peptides at 50 μM",195.1%
H-VECT(AAH)-R8-EKRVLA-S5-LDKPPFLTQLHS-OH [AT018],2-DG6P,"Table 1, peptides at 50 μM",28.2 pmol
same,2-DG6P compared to -Insulin (%),"Table 1, peptides at 50 μM",93.5%
H-LPHET-R8-RLSQKV-S5-TKLDCLMFVEPA-OH [AT004] (H-LPHET[R8]RLSQKV[S5]TKLDCLMFVEPA-OH; staple 6-13; SMILES CSCC[C@H](NC(=O)[C@H](CC(C)C)NC(=O)[C@H](CS)NC(=O)[C@H](CC(=O)O)NC(=O)[C@H](CC(C)C)NC(=O)[C@H](CCCCN)NC(=O)[C@@H](NC(=O)[C@]1(C)CCCC=CCCCCCC[C@@](C)(NC(=O)[C@@H](NC(=O)[C@H](CCC(=O)O)NC(=O)[C@H](Cc2c[nH]cn2)NC(=O)[C@@H]2CCCN2C(=O)[C@@H](N)CC(C)C)[C@@H](C)O)C(=O)N[C@@H](CCCNC(=N)N)C(=O)N[C@@H](CC(C)C)C(=O)N[C@@H](CO)C(=O)N[C@@H](CCC(N)=O)C(=O)N[C@@H](CCCCN)C(=O)N[C@@H](C(C)C)C(=O)N1)[C@@H](C)O)C(=O)N[C@@H](Cc1ccccc1)C(=O)N[C@H](C(=O)N[C@@H](CCC(=O)O)C(=O)N1CCC[C@H]1C(=O)N[C@@H](C)C(=O)O)C(C)C) [reference compound],2-DG6P,"Table 1, peptides at 50 μM",29.5 pmol
same,2-DG6P compared to -Insulin (%),"Table 1, peptides at 50 μM",98.0%
H-VECTM-R8-EKRVLA-S5-LDKPPFLTQLHS-NH2 [AT003],2-DG6P,"Table 1, peptides at 50 μM",46.2 pmol
same,2-DG6P compared to -Insulin (%),"Table 1, peptides at 50 μM",153.3%
H-VECTM-R8-EKRVLA-S5-LDKP-OH (H-VECTM[R8]EKRVLA[S5]LDKP-OH; staple 6-13; SMILES CSCC[C@H](NC(=O)[C@@H](NC(=O)[C@H](CS)NC(=O)[C@H](CCC(=O)O)NC(=O)[C@@H](N)C(C)C)[C@@H](C)O)C(=O)N[C@]1(C)CCCCCCC=CCCC[C@@](C)(C(=O)N[C@@H](CC(C)C)C(=O)N[C@@H](CC(=O)O)C(=O)N[C@@H](CCCCN)C(=O)N2CCC[C@H]2C(=O)O)NC(=O)[C@H](C)NC(=O)[C@H](CC(C)C)NC(=O)[C@H](C(C)C)NC(=O)[C@H](CCCNC(=N)N)NC(=O)[C@H](CCCCN)NC(=O)[C@H](CCC(=O)O)NC1=O) [AT015],2-DG6P,"Table 1, peptides at 50 μM",35.7 pmol
same,2-DG6P compared to -Insulin (%),"Table 1, peptides at 50 μM",118.6%
same,2-DG6P,"Table 3 dose response, 1 μM",16.6 pmol
same,2-DG6P compared to -Insulin (%),"Table 3 dose response, 1 μM",121.0%
same,2-DG6P,"Table 3 dose response, 10 μM",28.9 pmol
same,2-DG6P compared to -Insulin (%),"Table 3 dose response, 10 μM",210.6%
same,2-DG6P,"Table 3 dose response, 100 μM",39.2 pmol
same,2-DG6P compared to -Insulin (%),"Table 3 dose response, 100 μM",284.9%
H-VECTM-R8-EKRVLA-S5-LDKPPFLTQLHS-OH [AT001],2-DG6P,"Table 1, peptides at 50 μM",44.2 pmol
same,2-DG6P compared to -Insulin (%),"Table 1, peptides at 50 μM",146.8%
same,2-DG6P,[1],19.9 pmol
same,2-DG6P compared to -Insulin (%),[1],91.2%
same,2-DG6P,"Table 2 dose response, 0.01 μM",21.3 pmol
same,2-DG6P compared to -Insulin (%),"Table 2 dose response, 0.01 μM",97.5%
same,2-DG6P,"Table 2 dose response, 0.1 μM",22.3 pmol
same,2-DG6P compared to -Insulin (%),"Table 2 dose response, 0.1 μM",102.0%
same,2-DG6P,"Table 2 dose response, 1 μM",23.9 pmol
same,2-DG6P compared to -Insulin (%),"Table 2 dose response, 1 μM",109.6%
same,2-DG6P,"Table 2 dose response, 10 μM",31.7 pmol
same,2-DG6P compared to -Insulin (%),"Table 2 dose response, 10 μM",145.2%
same,2-DG6P,"Table 2 dose response, 100 μM",47.2 pmol
same,2-DG6P compared to -Insulin (%),"Table 2 dose response, 100 μM",216.1%
H-LPHET-R8-RLSQKV-S5-TKLDCLMFVEPA-OH [AT006] (H-LPHET[R8]RLSQKV[S5]TKLDCLMFVEPA-OH; staple 6-13; SMILES CSCC[C@H](NC(=O)[C@H](CC(C)C)NC(=O)[C@H](CS)NC(=O)[C@H](CC(=O)O)NC(=O)[C@H](CC(C)C)NC(=O)[C@H](CCCCN)NC(=O)[C@@H](NC(=O)[C@]1(C)CCCC=CCCCCCC[C@@](C)(NC(=O)[C@@H](NC(=O)[C@H](CCC(=O)O)NC(=O)[C@H](Cc2c[nH]cn2)NC(=O)[C@@H]2CCCN2C(=O)[C@@H](N)CC(C)C)[C@@H](C)O)C(=O)N[C@@H](CCCNC(=N)N)C(=O)N[C@@H](CC(C)C)C(=O)N[C@@H](CO)C(=O)N[C@@H](CCC(N)=O)C(=O)N[C@@H](CCCCN)C(=O)N[C@@H](C(C)C)C(=O)N1)[C@@H](C)O)C(=O)N[C@@H](Cc1ccccc1)C(=O)N[C@H](C(=O)N[C@@H](CCC(=O)O)C(=O)N1CCC[C@H]1C(=O)N[C@@H](C)C(=O)O)C(C)C) [reference compound],2-DG6P,"Table 1, peptides at 50 μM",30.7 pmol
same,2-DG6P compared to -Insulin (%),"Table 1, peptides at 50 μM",102.0%
H-VECTM-R8-EKRVLA-S5-LD-OH (H-VECTM[R8]EKRVLA[S5]LD-OH; staple 6-13; SMILES CSCC[C@H](NC(=O)[C@@H](NC(=O)[C@H](CS)NC(=O)[C@H](CCC(=O)O)NC(=O)[C@@H](N)C(C)C)[C@@H](C)O)C(=O)N[C@]1(C)CCCCCCC=CCCC[C@@](C)(C(=O)N[C@@H](CC(C)C)C(=O)N[C@@H](CC(=O)O)C(=O)O)NC(=O)[C@H](C)NC(=O)[C@H](CC(C)C)NC(=O)[C@H](C(C)C)NC(=O)[C@H](CCCNC(=N)N)NC(=O)[C@H](CCCCN)NC(=O)[C@H](CCC(=O)O)NC1=O) [AT016],2-DG6P,"Table 1, peptides at 50 μM",51.5 pmol
same,2-DG6P compared to -Insulin (%),"Table 1, peptides at 50 μM",170.9%
same,2-DG6P,"Table 3 dose response, 1 μM",23.7 pmol
same,2-DG6P compared to -Insulin (%),"Table 3 dose response, 1 μM",172.4%
same,2-DG6P,"Table 3 dose response, 10 μM",38.6 pmol
same,2-DG6P compared to -Insulin (%),"Table 3 dose response, 10 μM",280.6%
same,2-DG6P,"Table 3 dose response, 100 μM",51.4 pmol
same,2-DG6P compared to -Insulin (%),"Table 3 dose response, 100 μM",373.7%
H-VECTM-R8-EKRVLA-S5-LDKPPFLTQLHS-OH [AT021],2-DG6P,"Table 1, peptides at 50 μM",37.5 pmol
same,2-DG6P compared to -Insulin (%),"Table 1, peptides at 50 μM",124.6%
H-VECTM-S5-EKR-S5-LALLDKPPFLTQLHS-OH [AT008],2-DG6P,"Table 1, peptides at 50 μM",53.3 pmol
same,2-DG6P compared to -Insulin (%),"Table 1, peptides at 50 μM",177.0%
H-VECTM-R8-EKRVLA-S5-LDKPPFLTQLHS-OH [AT007],2-DG6P,"Table 1, peptides at 50 μM",57.7 pmol
same,2-DG6P compared to -Insulin (%),"Table 1, peptides at 50 μM",191.5%
same,2-DG6P,"Table 2 dose response, 0.1 μM",23.2 pmol
same,2-DG6P compared to -Insulin (%),"Table 2 dose response, 0.1 μM",106.5%
same,2-DG6P,"Table 2 dose response, 1 μM",24.0 pmol
same,2-DG6P compared to -Insulin (%),"Table 2 dose response, 1 μM",110.1%
same,2-DG6P,"Table 2 dose response, 10 μM",36.0 pmol
same,2-DG6P compared to -Insulin (%),"Table 2 dose response, 10 μM",165.0%
same,2-DG6P,"Table 2 dose response, 100 μM",55.5 pmol
same,2-DG6P compared to -Insulin (%),"Table 2 dose response, 100 μM",254.3%
H-VE(AAB)TM-R8-EKRVLA-S5-LDKPPFLTQLHS-OH [AT017],2-DG6P,"Table 1, peptides at 50 μM",55.4 pmol
same,2-DG6P compared to -Insulin (%),"Table 1, peptides at 50 μM",184.0%
H-LPHET-R8-RLSQKV-S5-TKLDCLMFVEPA-OH [AT005] (H-LPHET[R8]RLSQKV[S5]TKLDCLMFVEPA-OH; staple 6-13; SMILES CSCC[C@H](NC(=O)[C@H](CC(C)C)NC(=O)[C@H](CS)NC(=O)[C@H](CC(=O)O)NC(=O)[C@H](CC(C)C)NC(=O)[C@H](CCCCN)NC(=O)[C@@H](NC(=O)[C@]1(C)CCCC=CCCCCCC[C@@](C)(NC(=O)[C@@H](NC(=O)[C@H](CCC(=O)O)NC(=O)[C@H](Cc2c[nH]cn2)NC(=O)[C@@H]2CCCN2C(=O)[C@@H](N)CC(C)C)[C@@H](C)O)C(=O)N[C@@H](CCCNC(=N)N)C(=O)N[C@@H](CC(C)C)C(=O)N[C@@H](CO)C(=O)N[C@@H](CCC(N)=O)C(=O)N[C@@H](CCCCN)C(=O)N[C@@H](C(C)C)C(=O)N1)[C@@H](C)O)C(=O)N[C@@H](Cc1ccccc1)C(=O)N[C@H](C(=O)N[C@@H](CCC(=O)O)C(=O)N1CCC[C@H]1C(=O)N[C@@H](C)C(=O)O)C(C)C) [reference compound],2-DG6P,"Table 1, peptides at 50 μM",27.7 pmol
same,2-DG6P compared to -Insulin (%),"Table 1, peptides at 50 μM",92.0%
"+Insulin: insulin-treated adipocytes, positive control of the DG6P uptake assay [reference compound]",2-DG6P,"Table 1, +Insulin control",94.2 pmol
same,2-DG6P compared to -Insulin (%),"Table 1, +Insulin control",312.6%
same,2-DG6P,"Table 2, +Ins control",79.3 pmol
same,2-DG6P compared to -Insulin (%),"Table 2, +Ins control",363.3%
same,2-DG6P,"Table 3, +Insulin control",87.9 pmol
same,2-DG6P compared to -Insulin (%),"Table 3, +Insulin control",639.6%
